{"source": "patent US20220378738A1", "about": "“(+)-TRANS TETRAHYDROCANNABINOL ((+)-TRANS-THC) FOR USE AS A MEDICAMENT” (GW Research Limited, priority 2019, published 2022)", "key": {"[1]": {"system": "mouse model of pain, the hotplate test", "assay": "Hotplate test (52° C.), withdrawal threshold", "format": "in vivo", "settings": "for Withdrawal threshold (sec) Mean +/− SEM: N 13", "protocol": "Mice underwent a minimum habituation period of 7 days prior to study commencement. Naïve mice were acclimatised to the procedure room in their home cages, with food and water available ad libitum.\nAnimals were treated with either treatment vehicle, (+)-trans-THC at 3, 10, 30 and 300 mg/kg at 10 ml/kg i.p. or Morphine 10 mg/kg or Morphine vehicle (Saline) at 10 ml/kg i.p.\nAnimals were placed onto a hot plate set at 52° C. and time to withdrawal threshold (first response of lifting, licking front or hind paws or trying to escape) was taken at 1-hour post treatment, or at 0.5 hour after the positive control.\nAnimals were culled by a schedule 1 method, immediately after the measurement.\nData were analysed by comparing withdrawal thresholds back to Vehicle treated group."}, "[2]": {"settings": "depending on the assay; cited from earlier work"}, "[3]": {"system": "mouse supramaximal electroshock seizure (MES) model of generalized seizures", "assay": "Maximal electroshock (MES) test, number of tonic convulsions", "format": "in vivo", "settings": "for % change from vehicle (number of tonic clonic seizures after MES): 250 mg/kg I.P., pre-treatment time 30 mins, N 16", "protocol": "Mice were administered MES (30 mA, rectangular current: 0.6 ms pulse width, 0.2 s duration, 50 Hz) via corneal electrodes connected to a constant current shock generator (Ugo Basile: type 7801) to reliably produce tonic hind limb convulsions. The number of tonic convulsions was recorded.\nSixteen mice were studied per group. The test was performed blind.\nThe test substance, (+)-trans-THC, was evaluated at 4 doses (3, 10, 30 and 300 mg/kg), administered i.p. 60 minutes before MES, and compared with a vehicle control group (administered under the same experimental conditions).\nValproate (positive control) was administered at 250 mg/kg i.p. 30 minutes before MES, was used as a reference substance and was compared with a vehicle group (administered i.p. 60 minutes before MES).\nData was analysed by comparing treated groups with the appropriate vehicle control using 2-tailed Fisher's Exact Probability tests (p<0.05 considered significant)."}}, "note": "Marks after values point to notes of the source that are not given here.", "data": [{"compound": "CN1CC[C@]23c4c5ccc(O)c4O[C@H]2[C@@H](O)C=C[C@H]3[C@H]1C5", "note": "[Morphine]", "values": [{"measurement": "Withdrawal threshold (sec) Mean +/− SEM", "setting": "[1]; 10 mg/kg I.P., 0.5 hour after treatment", "value": "20.25 +/− 1.71 *** sec"}, {"measurement": "Withdrawal threshold (sec) Mean +/− SEM", "setting": "[1]; 10 mg/kg I.P., 0.5 hour after treatment, listed as morphine", "value": "significant increase in the withdrawal threshold compared to vehicle"}]}, {"compound": "CCCCCc1cc(O)c2c(c1)OC(C)(C)[C@@H]1CCC(C)=C[C@@H]21", "note": "[(−)-trans-THC, (−)-trans-tetrahydrocannabinol]", "values": [{"measurement": "Potency relative to the (+)-trans-THC isomer", "setting": "[2]", "value": "6-100 times"}]}, {"compound": "CCCC(CCC)C(=O)O", "note": "[Valproate]", "values": [{"measurement": "% change from vehicle (number of tonic clonic seizures after MES)", "setting": "[3]", "value": 100.0, "unit": "%"}, {"measurement": "% change from vehicle (number of tonic clonic seizures after MES)", "setting": "[3]; listed as valproate", "value": 100, "unit": "%"}]}, {"compound": "CCCCCc1cc(O)c2c(c1)OC(C)(C)[C@H]1CCC(C)=C[C@H]21", "note": "(relative stereo) [(+)-trans-THC, (+)-trans-tetrahydrocannabinol]", "values": [{"measurement": "Anti-convulsant effect in the MES model (overall conclusion)", "setting": "[3]; 3, 10, 30 and 300 mg/kg i.p.", "value": "no anti-convulsant effect"}, {"measurement": "Withdrawal threshold (sec) Mean +/− SEM", "setting": "[1]; 3 mg/kg I.P., 1-hour post treatment", "value": "11.05 ± 0.72", "unit": "s"}, {"measurement": "Withdrawal threshold (sec) Mean +/− SEM", "setting": "[1]; 10 mg/kg I.P., 1-hour post treatment", "value": "12.63 ± 0.81", "unit": "s"}, {"measurement": "Withdrawal threshold (sec) Mean +/− SEM", "setting": "[1]; 30 mg/kg I.P., 1-hour post treatment", "value": "13.38 ± 1.03", "unit": "s"}, {"measurement": "Anti-nociceptive effect in an animal model of pain (overall conclusion)", "setting": "[1]; hotplate, 3-300 mg/kg i.p.", "value": "exhibits an anti-nociceptive effect"}]}]}
